In US9186335B2, “Hot melt TTS for administering rotigotine” (UCB PHARMA GMBH, priority 2002, dated 2015) one finds stability under heating data, which are given here for one molecule.

This data set in a line: Rotigotine purity/stability in the hot-melt adhesive matrix by gradient HPLC with UV detection. The format is physicochemical. The note with it: short-term heating to temperatures up to at least 160° C.

In the case of `CCCN(CCc1cccs1)[C@H]1CCc2c(O)cccc2C1` [Rotigotine, (−)-5,6,7,8-tetrahydro-6-[propyl[2-(2-thienyl)ethyl)amino]-1-napththol], the stability under heating result is “remains stable”.
